In brackets after ≈: the same amount, converted by molar mass. Like-named read-outs stand apart in the source and are kept apart here.
Assays:
[1] = target: T1, human farnesoid X receptor (Homo sapiens, UniProt Q96RI1); experiment: FXR in vitro assays (farnesoid X receptor/ECREx7 co-transfection assay, TR-FRET assay), Table I; assay type: cell-based; conditions: for Emax: read-out: % Efficacy
T1 construct: CMX-farnesoid X receptor (full length human farnesoid X receptor); expressed in transfected cells; host or cells: CV-1 African Green Monkey Kidney cells
T1 sequence (Q96RI1 1-472 isoform Q96RI1-2): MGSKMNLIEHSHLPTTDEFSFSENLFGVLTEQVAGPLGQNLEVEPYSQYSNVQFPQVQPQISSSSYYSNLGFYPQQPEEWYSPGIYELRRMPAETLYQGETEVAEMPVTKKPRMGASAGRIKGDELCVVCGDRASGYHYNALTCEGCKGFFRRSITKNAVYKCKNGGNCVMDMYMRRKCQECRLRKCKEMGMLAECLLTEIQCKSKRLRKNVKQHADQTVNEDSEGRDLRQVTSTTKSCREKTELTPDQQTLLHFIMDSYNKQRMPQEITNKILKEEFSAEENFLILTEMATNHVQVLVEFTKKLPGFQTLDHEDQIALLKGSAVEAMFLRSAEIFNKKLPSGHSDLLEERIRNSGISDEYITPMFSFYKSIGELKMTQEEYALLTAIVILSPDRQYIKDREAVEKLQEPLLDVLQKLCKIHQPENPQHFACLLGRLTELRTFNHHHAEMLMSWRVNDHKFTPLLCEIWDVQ
T1 sequence (P19793 1-462 partner): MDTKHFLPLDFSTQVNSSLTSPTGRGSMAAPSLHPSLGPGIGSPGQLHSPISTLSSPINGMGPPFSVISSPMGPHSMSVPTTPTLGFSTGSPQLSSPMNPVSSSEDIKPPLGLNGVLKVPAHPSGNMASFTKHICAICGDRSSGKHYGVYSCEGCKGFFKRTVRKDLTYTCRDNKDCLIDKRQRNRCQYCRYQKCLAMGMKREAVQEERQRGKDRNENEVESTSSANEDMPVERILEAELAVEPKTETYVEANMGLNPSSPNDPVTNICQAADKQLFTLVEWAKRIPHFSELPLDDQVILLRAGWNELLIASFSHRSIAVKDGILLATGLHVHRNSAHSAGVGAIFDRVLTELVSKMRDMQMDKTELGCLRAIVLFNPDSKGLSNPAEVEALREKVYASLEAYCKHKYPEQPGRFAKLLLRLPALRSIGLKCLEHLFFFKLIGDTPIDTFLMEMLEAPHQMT
Outline: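 CV-1 monkey kidney cells transfected for an FXR/ECREx7 luciferase co-transfection reporter; luciferase read 18-20 h later in lysates. 8-point dose-response at ½-log spacing, 4 wells per point; EC50/IC50 from four-parameter Hill fit, averaged over at least 3 independent experiments.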

[2] = physchem; conditions: pH 7.4, aqueous buffer, kinetic from dmso stock
[3] = agonist activity, one or more of the in vitro assays, read-out: EC50

Structure (SMILES) | EC50 [1, 3] [nM] | Emax [1] [%] | solubility kinetic at 1.5 h [2] [µM] | EC50 [1] [nM]
CC(C)NC(=O)C1CN(C(=O)c2ccc(F)c(F)c2)CC(C)(C)c2c1[nH]c1ccccc21 (centres unmarked) [Example 90, 3-[(3,4-difluorophenyl)carbonyl]-1,1-dimethyl-N-(1-methylethyl)-1,2,3,4,5,6-hexahydroazepino[4,5-b]indole-5-carboxamide] | 1000 to 10000 | > 100 | > 10 | –
CC(C)OC(=O)C1=CN(C(=O)c2ccc(F)c(F)c2)CC(C)(C)c2c1[nH]c1cc(OC(=O)NCCN(C)C)ccc21 [Example 93, 1-methylethyl 3-[(3,4-difluorophenyl)carbonyl]-8-[({[2-(dimethylamino)ethyl]amino}carbonyl)oxy]-1,1-dimethyl-1,2,3,6-tetrahydroazepino[4,5-b]indole-5-carboxylate] | – | > 100 | > 10 | 10 to 100
CC(C)OC(=O)C1=CN(C(=O)c2ccc(F)c(F)c2)CC(C)(C)c2c1[nH]c1cc(OC(=O)OC(C)(C)C)ccc21 [Example 96, 1-methylethyl 3-[(3,4-difluorophenyl)carbonyl]-8-({[(1,1-dimethylethyl)oxy]carbonyl}oxy)-1,1-dimethyl-1,2,3,6-tetrahydroazepino[4,5-b]indole-5-carboxylate] | 10 to 100 | > 100 | 1 to 10 (≈ 0.555 to 5.55 µg/mL) | –
CC(C)OC(=O)C1=CN(C(=O)c2cccc(OCc3ccccc3)c2)CC(C)(C)c2c1[nH]c1ccccc21 [Example 127, 1-methylethyl 1,1-dimethyl-3-({3-[(phenylmethyl)oxy]phenyl}carbonyl)-1,2,3,6-tetrahydroazepino[4,5-b]indole-5-carboxylate] | 10 to 100 | > 100 | 1 to 10 (≈ 0.509 to 5.09 µg/mL) | –
Cc1ccc(C(=O)N2C=C(C(=O)OC(C)C)c3[nH]c4ccccc4c3C(C)(C)C2)cc1F [Example 130, 1-methylethyl 3-[(3-fluoro-4-methylphenyl)carbonyl]-1,1-dimethyl-1,2,3,6-tetrahydroazepino[4,5-b]indole-5-carboxylate] | 10 to 100 | > 100 | 1 to 10 (≈ 0.435 to 4.35 µg/mL) | –
CC(C)OC(=O)C1=CN(C(=O)c2ccc(C(F)(F)F)cc2F)CC(C)(C)c2c1[nH]c1ccccc21 [Example 131, 1-methylethyl 3-{[2-fluoro-4-(trifluoromethyl)phenyl]car-bonyl}-1,1-dimethyl-1,2,3,6-tetrahydroazepino[4,5-b]indole-5-carboxylate] | 100 to 1000 | > 100 | > 10 | –
CC(C)OC(=O)C1=CN(C(=O)c2ccc(C(F)(F)F)c(Cl)c2F)CC(C)(C)c2c1[nH]c1ccccc21 [Example 132, 1-methylethyl 3-{[3-chloro-2-fluoro-4-(trifluoromethyl)phenyl]car-bonyl}-1,1-dimethyl-1,2,3,6-tetrahydroazepino[4,5-b]indole-5-carboxylate] | 100 to 1000 | > 100 | 1 to 10 (≈ 0.523 to 5.23 µg/mL) | –
CC(C)OC(=O)C1=CN(C(=O)c2cc(F)cc(C(F)(F)F)c2)CC(C)(C)c2c1[nH]c1ccccc21 [Example 134, 1-methylethyl 3-{[3-fluoro-5-(trifluoromethyl)phenyl]car-bonyl}-1,1-dimethyl-1,2,3,6-tetrahydroazepino[4,5-b]indole-5-carboxylate] | 10 to 100 | > 100 | 1 to 10 (≈ 0.488 to 4.88 µg/mL) | –
CC(C)OC(=O)C1=CN(C(=O)c2cc(C(F)(F)F)cc(C(F)(F)F)c2)CC(C)(C)c2c1[nH]c1ccccc21 [Example 135, 1-methylethyl 3-{[3,5-bis(trifluoromethyl)phenyl]carbonyl}-1,1-dimethyl-1,2,3,6-tetrahydroazepino[4,5-b]indole-5-carboxylate] | 10 to 100 | > 100 | 1 to 10 (≈ 0.538 to 5.38 µg/mL) | –
CC(C)OC(=O)C1=CN(C(=O)c2cc(C(F)(F)F)ccc2C(F)(F)F)CC(C)(C)c2c1[nH]c1ccccc21 [Example 137, 1-methylethyl 3-{[2,5-bis(trifluoromethyl)phenyl]carbonyl}-1,1-dimethyl-1,2,3,6-tetrahydroazepino[4,5-b]indole-5-carboxylate] | 100 to 1000 | > 100 | 0.1 to 1 (≈ 0.0538 to 0.538 µg/mL) | –
CC(C)OC(=O)C1=CN(C(=O)c2ccc(C(F)(F)F)c(F)c2F)CC(C)(C)c2c1[nH]c1ccccc21 [Example 138, 1-methylethyl 3-{[2,3-difluoro-4-(trifluoromethyl)phenyl]car-bonyl}-1,1-dimethyl-1,2,3,6-tetrahydroazepino[4,5-b]indole-5-carboxylate] | 10 to 100 | > 100 | 0.1 to 1 (≈ 0.0506 to 0.506 µg/mL) | –
CC(C)OC(=O)C1=CN(C(=O)c2cccc(O)c2)CC(C)(C)c2c1[nH]c1ccccc21 [Example 139, 1-methylethyl 3-[(3-hydroxyphenyl)carbonyl]-1,1-dimethyl-1,2,3,6-tetrahydroazepino[4,5-b]indole-5-carboxylate] | 10 to 100 | > 100 | 1 to 10 (≈ 0.418 to 4.18 µg/mL) | –
CC(C)OC(=O)C1=CN(C(=O)c2cccc(OCCN(C)C)c2)CC(C)(C)c2c1[nH]c1ccccc21 [Example 140, 1-methylethyl 3-[(3-{[2-(dimethylamino)ethyl]oxy}phenyl)carbonyl]-1,1-dimethyl-1,2,3,6-tetrahydroazepino[4,5-b]indole-5-carboxylate] | – | > 100 | > 10 | –
CC(=O)N1CCN(Cc2cccc(C(=O)N3C=C(C(=O)OC(C)C)c4[nH]c5ccccc5c4C(C)(C)C3)c2)CC1 [Example 146, 1-methylethyl 3-({3-[(4-acetylpiperazin-1-yl)methyl]phenyl}carbonyl)-1,1-dimethyl-1,2,3,6-tetrahydroazepino[4,5-b]indole-5-carboxylate] | 100 to 1000 | > 100 | 1 to 10 (≈ 0.543 to 5.43 µg/mL) | –
CC1(C)CN(C(=O)c2ccc(F)c(F)c2)C=C(C(=O)OC[C@@H](O)CO)c2[nH]c3ccccc3c21 [Example 171, (2S)-2,3-dihydroxypropyl-3-[(3,4-difluorophenyl)carbonyl]-1,1-dimethyl-1,2,3,6-tetrahydroazepino[4,5-b]indole-5-carboxylate] | 10 to 100 | > 100 | > 10 | –
CC(=O)N1CCCN(Cc2cccc(C(=O)N3C=C(C(=O)OC(C)C)c4[nH]c5ccccc5c4C(C)(C)C3)c2)CC1 [Example 177, 1-methylethyl 3-({3-[(4-acetyl-1,4-diazepan-1-yl)methyl]phenyl}carbonyl)-1,1-dimethyl-1,2,3,6-tetrahydroazepino[4,5-b]indole-5-carboxylate] | 100 to 1000 | > 100 | 1 to 10 (≈ 0.557 to 5.57 µg/mL) | –
CCNC(=O)N1CCN(Cc2cccc(C(=O)N3C=C(C(=O)OC(C)C)c4[nH]c5ccccc5c4C(C)(C)C3)c2)CC1 [Example 185, 1-methylethyl 3-{[3-({4-[(ethylamino)carbonyl]piper-azin-1-yl}methyl)phenyl]carbonyl}-1,1-dimethyl-1,2,3,6-tetrahydroazepino[4,5-b]indole-5-carboxylate] | 100 to 1000 | > 100 | 1 to 10 (≈ 0.572 to 5.72 µg/mL) | –
CC(CO)OC(=O)C1=CN(C(=O)c2ccc(F)c(F)c2)CC(C)(C)c2c1[nH]c1ccccc21 (centres unmarked) [Example 193, 2-hydroxy-1-methylethyl 3-[(3,4-difluorophenyl)carbonyl]-1,1-dimethyl-1,2,3,6-tetrahydroazepino[4,5-b]indole-5-carboxylate] | 10 to 100 | > 100 | 1 to 10 (≈ 0.454 to 4.54 µg/mL) | –
CC1(C)CN(C(=O)c2ccc(F)c(F)c2)C=C(C(=O)OCCO)c2[nH]c3ccccc3c21 [Example 196, 2-hydroxyethyl 3-[(3,4-difluorophenyl)carbonyl]-1,1-dimethyl-1,2,3,6-tetrahydroazepino[4,5-b]indole-5-carboxylate] | 10 to 100 | > 100 | 1 to 10 (≈ 0.44 to 4.4 µg/mL) | –

From patent US20090203577A1 (EXELIXIS, INC., priority 2005, published 2009)
